Source: patent US9115092B2, “Substituted quinazoline and pyrido-pyrimidine derivatives” (Asana Biosciences, LLC, priority 2010, dated 2015)

Tests used:
[1] = target: T1, PI3Kα (wild-type), P110/P85α (Homo sapiens, UniProt P42336); test: PI3 Kinase TR-FRET assay, PI3Kα (wild-type); format: biochemical
T1 construct: made in house; host or cells: SF9 insect cells
Summary of the method: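 Sf9-expressed His-purified P110/P85α (5 ng) preincubated 60 min RT with compound and PIP2 in buffer with 40 mM MgCl2, 5 mM DTT; reaction started with ATP (PIP2 and ATP both 10 μM), 30 min RT. PIP3 detected by TR-FRET displacement, 665/615 nm ratio; IC50 from dose-response curves.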

mTOR kinase = target: T2, mTOR kinase (Homo sapiens, UniProt P42345); test: mTOR kinase TR-FRET assay; format: biochemical; conditions: read-out: mTO R
T2 construct: purchased Millipore, USA
Summary of the method: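 Compounds preincubated 60 min with mTOR (5 ng) in HEPES pH 7.5, EGTA, MnCl2; ULight-p70 S6K Thr389 peptide (50 nM) and ATP (20 μM) then added, 60 min at room temperature. EDTA-stopped, Eu-anti-phospho antibody detection by TR-FRET (665/615 nm); IC50 from variable-slope sigmoidal fit.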

PC3 cells = test: XTT assay for cell viability, PC3 cells; format: cell-based, human; conditions: Homo sapiens, PC-3, cell viability
Summary of the method: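 PC3 cells seeded at 1000 cells/well, grown 24 h, then exposed to serial dilutions of compound for 96 h. Viability read by XTT dye at 37° C, absorbance 465 nm. EC50 from sigmoidal dose-response fit.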

T1 sequence (P42336 whole entry): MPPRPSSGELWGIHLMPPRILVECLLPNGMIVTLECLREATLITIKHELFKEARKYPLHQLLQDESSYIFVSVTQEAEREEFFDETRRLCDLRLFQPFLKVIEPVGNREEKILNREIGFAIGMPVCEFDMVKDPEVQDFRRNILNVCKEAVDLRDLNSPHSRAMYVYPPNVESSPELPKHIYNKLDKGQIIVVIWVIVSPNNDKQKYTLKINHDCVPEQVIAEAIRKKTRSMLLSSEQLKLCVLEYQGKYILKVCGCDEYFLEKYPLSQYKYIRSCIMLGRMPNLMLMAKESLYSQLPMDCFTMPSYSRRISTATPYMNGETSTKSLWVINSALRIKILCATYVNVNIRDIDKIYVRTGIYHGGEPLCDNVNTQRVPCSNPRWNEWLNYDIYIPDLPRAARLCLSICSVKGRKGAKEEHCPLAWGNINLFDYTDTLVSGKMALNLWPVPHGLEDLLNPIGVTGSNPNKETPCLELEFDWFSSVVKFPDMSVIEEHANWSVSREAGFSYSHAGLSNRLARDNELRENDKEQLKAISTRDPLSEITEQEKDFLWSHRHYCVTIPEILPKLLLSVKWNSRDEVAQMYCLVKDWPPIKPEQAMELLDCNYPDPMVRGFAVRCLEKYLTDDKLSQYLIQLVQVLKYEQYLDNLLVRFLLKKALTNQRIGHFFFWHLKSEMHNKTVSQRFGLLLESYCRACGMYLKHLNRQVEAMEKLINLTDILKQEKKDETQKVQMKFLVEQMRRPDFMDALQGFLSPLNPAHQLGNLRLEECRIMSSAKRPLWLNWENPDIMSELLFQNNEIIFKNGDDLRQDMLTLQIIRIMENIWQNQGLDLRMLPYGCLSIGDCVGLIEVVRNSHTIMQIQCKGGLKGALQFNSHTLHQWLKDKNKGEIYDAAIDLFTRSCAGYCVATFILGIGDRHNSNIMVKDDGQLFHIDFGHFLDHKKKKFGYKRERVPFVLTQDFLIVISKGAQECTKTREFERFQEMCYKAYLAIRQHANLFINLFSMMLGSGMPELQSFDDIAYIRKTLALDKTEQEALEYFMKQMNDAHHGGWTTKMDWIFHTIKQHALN
T1 sequence (P27986 whole entry partner): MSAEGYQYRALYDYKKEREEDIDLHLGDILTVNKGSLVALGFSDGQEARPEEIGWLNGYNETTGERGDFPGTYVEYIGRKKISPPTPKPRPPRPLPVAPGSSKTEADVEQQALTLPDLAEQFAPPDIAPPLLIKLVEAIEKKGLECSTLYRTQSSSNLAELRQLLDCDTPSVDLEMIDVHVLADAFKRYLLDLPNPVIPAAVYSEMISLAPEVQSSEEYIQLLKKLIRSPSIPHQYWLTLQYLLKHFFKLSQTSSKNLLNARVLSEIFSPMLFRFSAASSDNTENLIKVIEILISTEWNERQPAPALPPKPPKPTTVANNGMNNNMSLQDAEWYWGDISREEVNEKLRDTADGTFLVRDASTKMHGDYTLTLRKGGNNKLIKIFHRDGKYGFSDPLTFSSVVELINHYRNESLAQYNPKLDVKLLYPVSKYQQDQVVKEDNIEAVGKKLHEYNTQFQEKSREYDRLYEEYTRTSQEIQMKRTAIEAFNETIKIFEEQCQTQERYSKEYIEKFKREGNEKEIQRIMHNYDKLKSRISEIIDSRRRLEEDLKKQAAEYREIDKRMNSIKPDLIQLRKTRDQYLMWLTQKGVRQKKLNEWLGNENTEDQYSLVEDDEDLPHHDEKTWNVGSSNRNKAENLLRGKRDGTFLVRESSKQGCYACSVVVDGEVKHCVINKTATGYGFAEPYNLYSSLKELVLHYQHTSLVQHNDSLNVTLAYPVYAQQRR

| IC50 [1] | IC50 (mTOR kinase) | IC50 (PC3 cells) | SMILES |
| --- | --- | --- | --- |
| < 0.05 µM | < 0.05 µM | < 0.1 µM | Cc1ccc(-c2ccc3c(N4CCOCC4)nc(-c4ccc(NC(=O)Nc5ccc(C(=O)N(C)C)cc5)cc4)nc3c2)o1 [Example 2, N,N-Dimethyl-4-(3-{4-[7-(5-methyl-furan-2-yl)-4-morpholin-4-yl-quinazolin-2-yl]-phenyl}-ureido)-benzamide] |
| < 0.05 µM | < 0.05 µM | 0.1 to 0.5 µM | CN(C)C(=O)c1ccc(NC(=O)Nc2ccc(-c3nc(N4CCOCC4)c4ccc(-c5ccco5)cc4n3)cc2)cc1 [Example 51, 4-{3-[4-(7-furan-2-yl-4-morpholin-4-yl-quinazolin-2-yl)-phenyl]-ureido}-N,N-dimethyl-benzamide] |
| < 0.05 µM | < 0.05 µM | 0.201 to 10 µM | CN(C)C(=O)c1ccc(NC(=O)Nc2ccc(-c3nc(N4CCOCC4)c4ccc(-c5cncnc5)cc4n3)cc2)c(F)c1 [Example 133, 3-fluoro-N,N-dimethyl-4-(3-(4-(4-morpholino-7-(pyrimidin-5-yl)quinazolin-2-yl)phenyl)ureido)-benzamide] |
| 0.05 to 0.2 µM | < 0.05 µM | 0.201 to 10 µM | CN(C)C(=O)c1ccc(NC(=O)Nc2ccc(-c3nc(N4CCOCC4)c4ccc(-c5cccnc5F)cc4n3)cc2)c(F)c1 [Example 146, 3-fluoro-4-(3-(4-(7-(2-fluoropyridin-3-yl)-4-morpholino-quinazolin-2-yl)phenyl)ureido)-N,N-dimethyl-benzamide] |
| < 0.05 µM | < 0.05 µM | < 0.1 µM | CN(C)C(=O)c1ccc(NC(=O)Nc2ccc(-c3nc(N4CCOCC4)c4ccc(-c5cccnc5)cc4n3)cc2)c(F)c1 [Example 152, 3-fluoro-N,N-dimethyl-4-(3-(4-(4-morpholino-7-(pyridin-3-yl)quinazolin-2-yl)phenyl)ureido)-benzamide] |

| SMILES | IC50 [1] | IC50 (mTOR kinase) | IC50 (PC3 cells) |
| --- | --- | --- | --- |
| CN(C)C(=O)c1ccc(NC(=O)Nc2ccc(-c3nc(N4CCOCC4)c4ccc(-c5cncnc5)cc4n3)cc2)cc1 [Example 1, N,N-Dimethyl-4-(3-{4-[4-morpholin-4-yl-7-pyrimidin-5-yl-quinazolin-2-yl)-phenyl]-ureido}-benzamide] | < 0.05 µM | < 0.05 µM | 0.1 to 0.5 µM |
